Assays:
Type in all cases: in vivo
[1] = tested on: sandbur (Cenchrus echinatus); assay: Test E pre-/postemergence/post directed; set-up: key: 0 is no injury; 100 is complete control; details: PREEMERGENCE, Rate 32 g/ha
Description: (§1) Seeds, tubers, or plant parts of alexandergrass (Brachiaria plantaginea), annual bluegrass (Poa annua), arrowleaf sida (Sida rhombifolia), barnyardgrass (Echinochloa crus-galli), bermudagrass (Cynodon dactylon), citrus (Citrus sinensis), common chickweed (Stellaria media), common purslane (Portulaca oleracea), common ragweed (Ambrosia elatior), common groundsel (Senecio vulgaris), dallisgrass (Paspalum dilatatum), goosegrass (Eleusine indica), green foxtail (Setaria viridis), guineagrass (Panicum maximum), itchgrass (Rottboellia exaltata), johnson grass (Sorghum halepense), kochia (Kochia scoparia), large crabgrass (Digitaria sanguinalis), leafy spurge (Euphorbia esula), pitted morningglory (Ipomoea lacunosa), purple nutsedge (Cyperus rotundus), quackgrass (Agropyron repens), Russian thistle (Salsola kali), sandbur (Cenchrus echinatus), sourgrass (Trichachne insularis), Spanishneedles (Bidens bipinnata), sugarcane (Saccharum officinarum), surinam grass (Brachiaria decumbens) and tall mallow (Malva sylvestris) were planted into greenhouse pots of flats containing greenhouse planting medium. Plant species were grown grown in separate pots or individual compartments. Preemergence applications were made within one day of planting the seed or plant part. Postemergence applications were applied when the plants were in the two to four leaf stage (three to twenty cm).
(§2) Test chemicals were formulated in a non-phytotoxic solvent mixture which included a surfactant and applied preemergence to the soil surface, postemergence to the plants or as a post directed spray to plants and soil at the base of the target species. Untreated control plants and treated plants were placed in the greenhouse and visually evaluated for injury 13 to 21 days after herbicide application. Plant response ratings, summarized in Table E, are based on a 0 to 100 scale where 0 is no injury and 100 is complete control. A dash (−) response means no test result.

[2] = tested on: purple nutsedge (Cyperus rotundus); assay: Test E pre-/postemergence/post directed; set-up: key: 0 is no injury; 100 is complete control
Description: as §1, §2

[3] = tested on: hairy beggarticks (Bidens pilosa); assay: Test C; set-up: key: 0 was no effect; 100 was complete control; details: PREEMERGENCE
[4] = tested on: arrowleaf sida (Sida rhombifolia); assay: Test C; set-up: key: 0 was no effect; 100 was complete control; details: PREEMERGENCE
[5] = tested on: common ragweed (Ambrosia elatior); assay: Test C; set-up: key: 0 was no effect; 100 was complete control; details: PREEMERGENCE
[6] = tested on: fall panicum (Panicum dichotomiflorum); assay: Test C; set-up: key: 0 was no effect; 100 was complete control; details: PREEMERGENCE
[7] = tested on: barnyardgrass (Echinochloa crus-galli); assay: Test C; details: PREEMERGENCE
[8] = tested on: wild poinsettia (Euphorbia heterophylla); assay: Test C; set-up: key: 0 was no effect; 100 was complete control; details: PREEMERGENCE
soybean (Glycine max) = assay: Test C; set-up: key: 0 was no effect; 100 was complete control; details: PREEMERGENCE
[9] = tested on: velvetleaf (Abutilon theophrasti); assay: Test C; set-up: key: 0 was no effect; 100 was complete control; details: PREEMERGENCE
[10] = tested on: ivyleaf morningglory (Ipomoea hederacea); assay: Test C; set-up: key: 0 was no effect; 100 was complete control; details: PREEMERGENCE
[11] = tested on: eastern black nightshade (Solanum ptycanthum); assay: Test C; set-up: key: 0 was no effect; 100 was complete control; details: PREEMERGENCE
[12] = tested on: large crabgrass (Digitaria sanguinalis); assay: Test C; set-up: key: 0 was no effect; 100 was complete control; details: PREEMERGENCE
[13] = tested on: ladysthumb smartweed (Polygonum persicaria); assay: Test C; details: PREEMERGENCE

Cc1cnc(-n2ccc(C(F)(F)F)n2)nc1Cn1ccc(C(F)(F)F)n1 [Compound 52]
50: Plant response rating, Purple nutsedge ([2]; POSTEMERGENCE, Rate 250 g/ha) | Plant response rating, Purple nutsedge ([2]; PREEMERGENCE, Rate 125 g/ha)
5: Plant response rating, Purple nutsedge ([2]; PREEMERGENCE, Rate 32 g/ha) | Plant response rating, I. morningglory ([10]; Rate 35 g/ha)
60: Plant response rating, Common ragweed ([5]; Rate 70 g/ha)
55: Plant response rating, Soybean (soybean (Glycine max); Rate 70 g/ha)
80: Plant response rating, E. blacknightsh ([11]; Rate 70 g/ha)
40: Plant response rating, Purple nutsedge ([2]; POSTEMERGENCE, Rate 125 g/ha) | Plant response rating, Common ragweed ([5]; Rate 35 g/ha) | Plant response rating, Barnyardgrass ([7]; Rate 70 g/ha) | Plant response rating, Barnyardgrass ([7]; Rate 140 g/ha) | Plant response rating, Wild poinsettia ([8]; Rate 70 g/ha) | Plant response rating, E. blacknightsh ([11]; Rate 35 g/ha)
70: Plant response rating, Soybean (soybean (Glycine max); Rate 140 g/ha) | Plant response rating, Velvetleaf ([9]; Rate 35 g/ha)
0: Plant response rating, Sandbur [1] | Plant response rating, H. beggarticks ([3]; Rate 35 g/ha) | Plant response rating, H. beggarticks ([3]; Rate 70 g/ha) | Plant response rating, Soybean (soybean (Glycine max); Rate 35 g/ha)
100: Plant response rating, Arrowleaf sida ([4]; Rate 35 g/ha) | Plant response rating, Arrowleaf sida ([4]; Rate 70 g/ha) | Plant response rating, Arrowleaf sida ([4]; Rate 140 g/ha) | Plant response rating, Common ragweed ([5]; Rate 140 g/ha) | Plant response rating, Fall panicum ([6]; Rate 35 g/ha) | Plant response rating, Fall panicum ([6]; Rate 70 g/ha) | Plant response rating, Fall panicum ([6]; Rate 140 g/ha) | Plant response rating, Wild poinsettia ([8]; Rate 140 g/ha) | Plant response rating, Velvetleaf ([9]; Rate 70 g/ha) | Plant response rating, Velvetleaf ([9]; Rate 140 g/ha) | Plant response rating, I. morningglory ([10]; Rate 70 g/ha) | Plant response rating, I. morningglory ([10]; Rate 140 g/ha) | Plant response rating, E. blacknightsh ([11]; Rate 140 g/ha) | Plant response rating, Large crabgrass ([12]; Rate 35 g/ha) | Plant response rating, Large crabgrass ([12]; Rate 70 g/ha) | Plant response rating, Large crabgrass ([12]; Rate 140 g/ha)
30: Plant response rating, Purple nutsedge ([2]; PREEMERGENCE, Rate 64 g/ha) | Plant response rating, H. beggarticks ([3]; Rate 140 g/ha) | Plant response rating, Barnyardgrass ([7]; Rate 35 g/ha)

CCc1cnc(-n2ccc(C(F)(F)F)n2)nc1Cc1cccc(C(F)(F)F)c1 [Compound 46]
90: Plant response rating, Arrowleaf sida ([4]; Rate 70 g/ha)
80: Plant response rating, Common ragweed ([5]; Rate 140 g/ha) | Plant response rating, Velvetleaf ([9]; Rate 70 g/ha) | Plant response rating, Velvetleaf ([9]; Rate 140 g/ha) | Plant response rating, E. blacknightsh ([11]; Rate 35 g/ha) | Plant response rating, Large crabgrass ([12]; Rate 35 g/ha)
60: Plant response rating, Fall panicum ([6]; Rate 35 g/ha)
50: Plant response rating, Barnyardgrass ([7]; Rate 140 g/ha) | Plant response rating, Velvetleaf ([9]; Rate 35 g/ha) | Plant response rating, Ladysthumb ([13]; Rate 140 g/ha) | Plant response rating, I. morningglory ([10]; Rate 70 g/ha) | Plant response rating, I. morningglory ([10]; Rate 140 g/ha)
10: Plant response rating, Common ragweed ([5]; Rate 35 g/ha) | Plant response rating, Barnyardgrass ([7]; Rate 70 g/ha) | Plant response rating, Ladysthumb ([13]; Rate 70 g/ha)
0: Plant response rating, Sandbur [1] | Plant response rating, Purple nutsedge ([2]; PREEMERGENCE, Rate 32 g/ha) | Plant response rating, Purple nutsedge ([2]; PREEMERGENCE, Rate 64 g/ha) | Plant response rating, Purple nutsedge ([2]; PREEMERGENCE, Rate 125 g/ha) | Plant response rating, Purple nutsedge ([2]; PREEMERGENCE, Rate 250 g/ha) | Plant response rating, H. beggarticks ([3]; Rate 35 g/ha) | Plant response rating, Wild poinsettia ([8]; Rate 35 g/ha) | Plant response rating, Soybean (soybean (Glycine max); Rate 35 g/ha) | Plant response rating, Soybean (soybean (Glycine max); Rate 70 g/ha)
25: Plant response rating, Ladysthumb ([13]; Rate 35 g/ha)
100: Plant response rating, H. beggarticks ([3]; Rate 70 g/ha) | Plant response rating, H. beggarticks ([3]; Rate 140 g/ha) | Plant response rating, Arrowleaf sida ([4]; Rate 35 g/ha) | Plant response rating, Arrowleaf sida ([4]; Rate 140 g/ha) | Plant response rating, Fall panicum ([6]; Rate 70 g/ha) | Plant response rating, Fall panicum ([6]; Rate 140 g/ha) | Plant response rating, E. blacknightsh ([11]; Rate 70 g/ha) | Plant response rating, E. blacknightsh ([11]; Rate 140 g/ha) | Plant response rating, Large crabgrass ([12]; Rate 70 g/ha) | Plant response rating, Large crabgrass ([12]; Rate 140 g/ha)
45: Plant response rating, I. morningglory ([10]; Rate 35 g/ha)
20: Plant response rating, Common ragweed ([5]; Rate 70 g/ha) | Plant response rating, Wild poinsettia ([8]; Rate 140 g/ha) | Plant response rating, Soybean (soybean (Glycine max); Rate 140 g/ha)
5: Plant response rating, Barnyardgrass ([7]; Rate 35 g/ha)
15: Plant response rating, Wild poinsettia ([8]; Rate 70 g/ha)

Source: patent publication US6525001B1, “Substituted pyrimidine and pyridine herbicides” (Mid-American Commercialization Corporation, priority 1997, dated 2003)
